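Exposure lasted 48 hours, with cells grown in 96-well plates and compounds tested at five concentrations. Here, GI50 denotes the concentration required for 50% inhibition of growth.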 Activity calls are given as the source filed them. Rule as the data show it: active = GI50 up to about 1.1 µM and inactive = higher.
What was measured:
Assay in all cases: NCI-60 cell line screen, 48 h
COLO 205 = test system: COLO 205
ACHN = test system: ACHN
UO-31 = test system: UO-31
OVCAR-8 = test system: OVCAR-8
SK-OV-3 = test system: SK-OV-3
MOLT-4 = test system: MOLT-4
A549 = test system: A549
M19-MEL = test system: M19-MEL
SK-MEL-5 = test system: SK-MEL-5
SN12C = test system: SN12C
SW-620 = test system: SW-620
DMS-114 = test system: DMS-114
HOP-62 = test system: HOP-62
CAKI-1 = test system: CAKI-1
U-251 = test system: U-251
LXFL 529 = test system: LXFL 529
HCC 2998 = test system: HCC 2998
KM-20L2 = test system: KM-20L2
HCT-15 = test system: HCT-15
K562 = test system: K562
DMS-273 = test system: DMS-273
SF-539 = test system: SF-539
IGROV-1 = test system: IGROV-1
SNB-19 = test system: SNB-19
RXF 631 = test system: RXF 631
LOX IMVI = test system: LOX IMVI
786-0 = test system: 786-0
M14 = test system: M14
A498 = test system: A498
DLD-1 = test system: DLD-1
UACC-257 = test system: UACC-257
TK-10 = test system: TK-10
EKVX = test system: EKVX
RPMI-8226 = test system: RPMI-8226
OVCAR-3 = test system: OVCAR-3
SNB-75 = test system: SNB-75
SK-MEL-28 = test system: SK-MEL-28
Malme-3M = test system: Malme-3M
SNB-78 = test system: SNB-78
NCI-H522 = test system: NCI-H522
NCI-H460 = test system: NCI-H460
OVCAR-4 = test system: OVCAR-4
HT-29 = test system: HT-29
NCI-H23 = test system: NCI-H23
HCT-116 = test system: HCT-116
SF-268 = test system: SF-268
RXF 393 = test system: RXF 393
SK-MEL-2 = test system: SK-MEL-2
UACC-62 = test system: UACC-62
XF498 = test system: XF498
NCI-H226 = test system: NCI-H226
SF-295 = test system: SF-295
OVCAR-5 = test system: OVCAR-5
CCRF-CEM = test system: CCRF-CEM
KM12 = test system: KM12
HOP-92 = test system: HOP-92
HL-60 = test system: HL-60
HOP-18 = test system: HOP-18

In the case of `CCN(CC)CCC1(C2CCCCC2)CCC(=O)NC1=O` (stereo not drawn), the GI50 (COLO 205) is reported as > 100 µM (inactive), the GI50 (ACHN) is reported as > 100 µM (inactive) and the GI50 (UO-31) is reported as > 100 µM (inactive). For the same molecule, the GI50 (OVCAR-8) was > 100 µM (inactive), the GI50 (SK-OV-3) was > 100 µM (inactive) and the GI50 (MOLT-4) was > 100 µM (inactive). For the same molecule, the GI50 (A549) was > 100 µM (inactive), the GI50 (M19-MEL) was > 100 µM (inactive) and the GI50 (SK-MEL-5) was > 100 µM (inactive). The GI50 (SN12C) was > 100 µM (inactive), the GI50 (SW-620) was > 100 µM (inactive) and the GI50 (DMS-114) was > 100 µM (inactive). For the same molecule, the GI50 (HOP-62) was > 100 µM (inactive), the GI50 (CAKI-1) was > 100 µM (inactive) and the GI50 (U-251) was > 100 µM (inactive). For the same molecule, the GI50 (LXFL 529) was > 100 µM (inactive), the GI50 (HCC 2998) was > 100 µM (inactive) and the GI50 (KM-20L2) was > 100 µM (inactive). The GI50 (HCT-15) was over 100 µM, the GI50 (K562) was > 100 µM (inactive) and the GI50 (DMS-273) was > 100 µM (inactive). For the same molecule, the GI50 (SF-539) was > 100 µM (inactive), the GI50 (IGROV-1) was > 100 µM (inactive) and the GI50 (SNB-19) was > 100 µM (inactive). The GI50 (RXF 631) was > 100 µM (inactive), the GI50 (LOX IMVI) was > 100 µM (inactive) and the GI50 (786-0) was > 100 µM (inactive). The GI50 (M14) was > 100 µM (inactive), the GI50 (A498) was > 100 µM (inactive) and the GI50 (DLD-1) was > 100 µM (inactive). The GI50 (UACC-257) was > 100 µM (inactive), the GI50 (TK-10) was > 100 µM (inactive) and the GI50 (EKVX) was > 100 µM (inactive). For the same molecule, the GI50 (RPMI-8226) was > 100 µM (inactive), the GI50 (OVCAR-3) was > 100 µM (inactive) and the GI50 (SNB-75) was > 100 µM (inactive). The GI50 (SK-MEL-28) was > 100 µM (inactive), the GI50 (Malme-3M) was > 100 µM (inactive) and the GI50 (SNB-78) was > 100 µM (inactive). The GI50 (NCI-H522) was > 100 µM (inactive), the GI50 (NCI-H460) was > 100 µM (inactive) and the GI50 (OVCAR-4) was > 100 µM (inactive). The GI50 (HT-29) was > 100 µM (inactive), the GI50 (NCI-H23) was > 100 µM (inactive) and the GI50 (HCT-116) was > 100 µM (inactive). For the same molecule, the GI50 (SF-268) was > 100 µM (inactive), the GI50 (RXF 393) was > 100 µM (inactive) and the GI50 (SK-MEL-2) was > 100 µM (inactive). For the same molecule, the GI50 (UACC-62) was > 100 µM (inactive), the GI50 (XF498) was > 100 µM (inactive) and the GI50 (NCI-H226) was > 100 µM (inactive). The GI50 (SF-295) was > 100 µM (inactive), the GI50 (OVCAR-5) was > 100 µM (inactive) and the GI50 (CCRF-CEM) was > 100 µM (inactive). For the same molecule, the GI50 (KM12) was > 100 µM (inactive).
With `c1ccc(/N=C2\c3ccccc3C3=NCCCN32)cc1` the GI50 (COLO 205) was 62.1 µM (inactive), the GI50 (ACHN) was 29.4 µM (inactive) and the GI50 (UO-31) was 29.2 µM (inactive). For the same molecule, the GI50 (OVCAR-8) was > 100 µM (inactive), the GI50 (MOLT-4) was 39.4 µM (inactive) and the GI50 (A549) was 42.3 µM (inactive). The GI50 (M19-MEL) was 53.6 µM (inactive), the GI50 (SK-MEL-5) was 28 µM (inactive) and the GI50 (SN12C) was > 100 µM (inactive). The GI50 (SW-620) was 43.9 µM (inactive), the GI50 (DMS-114) was 28.2 µM (inactive) and the GI50 (HOP-62) was 67.6 µM (inactive). The GI50 (CAKI-1) was 27.1 µM (inactive), the GI50 (U-251) was > 100 µM (inactive) and the GI50 (LXFL 529) was 43.3 µM (inactive). The GI50 (HCC 2998) was 49.7 µM (inactive), the GI50 (KM-20L2) was 59.2 µM (inactive) and the GI50 (HCT-15) was 35.6 µM. For the same molecule, the GI50 (K562) was 29.2 µM (inactive), the GI50 (DMS-273) was 36.3 µM (inactive) and the GI50 (SF-539) was 49.3 µM (inactive). The GI50 (IGROV-1) was 59.8 µM (inactive), the GI50 (SNB-19) was 85.9 µM (inactive) and the GI50 (RXF 631) was 85.5 µM (inactive). The GI50 (LOX IMVI) was 47.1 µM (inactive), the GI50 (786-0) was 90.4 µM (inactive) and the GI50 (M14) was > 100 µM (inactive). For the same molecule, the GI50 (A498) was 43.2 µM (inactive), the GI50 (DLD-1) was 39.2 µM (inactive) and the GI50 (UACC-257) was 40.4 µM (inactive). The GI50 (TK-10) was 50 µM (inactive), the GI50 (EKVX) was 30.6 µM (inactive) and the GI50 (RPMI-8226) was 30.5 µM (inactive). For the same molecule, the GI50 (OVCAR-3) was 75 µM (inactive), the GI50 (SNB-75) was 50.9 µM (inactive) and the GI50 (SK-MEL-28) was > 100 µM (inactive). The GI50 (Malme-3M) was 62.8 µM (inactive), the GI50 (SNB-78) was > 100 µM (inactive) and the GI50 (NCI-H522) was 18.1 µM (inactive). For the same molecule, the GI50 (NCI-H460) was 55.1 µM (inactive), the GI50 (OVCAR-4) was 42.2 µM (inactive) and the GI50 (HT-29) was 31.1 µM (inactive). The GI50 (NCI-H23) was 41.5 µM (inactive), the GI50 (HCT-116) was 40.2 µM (inactive) and the GI50 (SF-268) was 81.5 µM (inactive). For the same molecule, the GI50 (RXF 393) was 34.7 µM (inactive), the GI50 (SK-MEL-2) was 86.5 µM (inactive) and the GI50 (UACC-62) was 61.5 µM (inactive). For the same molecule, the GI50 (XF498) was 85.5 µM (inactive), the GI50 (NCI-H226) was 27.2 µM (inactive) and the GI50 (HOP-92) was 13.8 µM (inactive). For the same molecule, the GI50 (SF-295) was 92 µM (inactive), the GI50 (OVCAR-5) was > 100 µM (inactive) and the GI50 (CCRF-CEM) was 61.1 µM (inactive). The GI50 (KM12) was 38.7 µM (inactive).
In the case of `Oc1cc(O)c(Oc2cccc(O)c2O)c(O)c1`, the GI50 (COLO 205) is reported as > 100 µM (inactive), the GI50 (ACHN) is reported as > 100 µM (inactive) and the GI50 (UO-31) is reported as > 100 µM (inactive). For the same molecule, the GI50 (OVCAR-8) was > 100 µM (inactive), the GI50 (SK-OV-3) was > 100 µM (inactive) and the GI50 (MOLT-4) was > 100 µM (inactive). For the same molecule, the GI50 (A549) was > 100 µM (inactive), the GI50 (M19-MEL) was 21.1 µM (inactive) and the GI50 (SK-MEL-5) was 18.6 µM (inactive). The GI50 (SN12C) was > 100 µM (inactive), the GI50 (SW-620) was 55.6 µM (inactive) and the GI50 (DMS-114) was 57.7 µM (inactive). For the same molecule, the GI50 (HOP-62) was > 100 µM (inactive), the GI50 (CAKI-1) was > 100 µM (inactive) and the GI50 (U-251) was > 100 µM (inactive). The GI50 (LXFL 529) was > 100 µM (inactive), the GI50 (HCC 2998) was > 100 µM (inactive) and the GI50 (HCT-15) was over 100 µM. For the same molecule, the GI50 (K562) was 35 µM (inactive), the GI50 (DMS-273) was > 100 µM (inactive) and the GI50 (SF-539) was > 100 µM (inactive). For the same molecule, the GI50 (IGROV-1) was > 100 µM (inactive), the GI50 (SNB-19) was > 100 µM (inactive) and the GI50 (RXF 631) was > 100 µM (inactive). The GI50 (786-0) was 42.6 µM (inactive), the GI50 (M14) was > 100 µM (inactive) and the GI50 (A498) was > 100 µM (inactive). The GI50 (HL-60) was 99.5 µM (inactive), the GI50 (UACC-257) was > 100 µM (inactive) and the GI50 (TK-10) was > 100 µM (inactive). The GI50 (EKVX) was > 100 µM (inactive), the GI50 (HOP-18) was > 100 µM (inactive) and the GI50 (RPMI-8226) was > 100 µM (inactive). The GI50 (OVCAR-3) was 73.3 µM (inactive), the GI50 (SNB-75) was 45.8 µM (inactive) and the GI50 (SK-MEL-28) was > 100 µM (inactive). The GI50 (Malme-3M) was > 100 µM (inactive), the GI50 (SNB-78) was > 100 µM (inactive) and the GI50 (NCI-H522) was 49.7 µM (inactive). The GI50 (NCI-H460) was > 100 µM (inactive), the GI50 (OVCAR-4) was 15.5 µM (inactive) and the GI50 (HT-29) was > 100 µM (inactive). The GI50 (NCI-H23) was > 100 µM (inactive), the GI50 (SF-268) was > 100 µM (inactive) and the GI50 (RXF 393) was > 100 µM (inactive). For the same molecule, the GI50 (SK-MEL-2) was 37.8 µM (inactive), the GI50 (UACC-62) was 35.6 µM (inactive) and the GI50 (XF498) was 29.5 µM (inactive). The GI50 (HOP-92) was > 100 µM (inactive), the GI50 (SF-295) was > 100 µM (inactive) and the GI50 (OVCAR-5) was > 100 µM (inactive). The GI50 (CCRF-CEM) was 33.3 µM (inactive) and the GI50 (KM12) was > 100 µM (inactive).

From ChEMBL document CHEMBL1201862, “PubChem BioAssay data set” (2004)
